Experimental findings from patent publication US20140057977A1, “Induction of Arteriogenesis” (G. Pohl-Boskamp GmbH & Co. KG, priority 2012, published 2014) are described below.

Where “and” joins values, the source holds several entries; their conditions need not be identical. Equal values may be shown once. Entries after “also recorded” stand apart in the source; their conditions may differ.

What all share (assay type): in vivo
Assay [1] deals with rat heart. Kind of assay: Infarct size by TTC staining after 90 minutes of LAD occlusion. Particulars: for Infarct size: 90 min LAD occlusion, percentage of the area of the left ventricle.
Assay [2] relates to rat heart. Kind of assay: ST segment elevation (ECG) during final permanent LAD occlusion (FPO), rat repetitive ischemia protocol (RIP) arteriogenesis model.
Assay [3] relates to rat heart. Kind of assay: Ventricular arrhythmias during FPO, Lown classification and VPB score.

With `CC(=O)Oc1ccccc1C(=O)O` [ASA+NTG-PLACEBO, acetyl salicylic acid], the Infarct size in assay [1] (5 DAYS RIP) stood at 13.92±1.71%. The compound also showed an Infarct size in assay [1] (5 DAYS RIP, listed as NTG-PLACEBO+ASS) of 13.92±1.71%. The ST segment elevation in assay [2] (5 DAYS RIP, after FPO) is 0.144±0.091 mV. In addition, in assay [3] (5 DAYS RIP, during FPO), the “rats with class IIIa arrhythmias” value is 16.7% and the “rats with class IVb arrhythmias” value is 83.3%. Besides, in assay [3] (RIP (Modules 2-4)), the VPB-Score turned out to be 5.50.

`CC(=O)Oc1ccccc1C(=O)O` [ASA+PBS, acetyl salicylic acid]: the Infarct size in assay [1] (5 DAYS RIP) is on record as 12.51±3.05%. Further, the “infarct size compared to controls (in words)” value was “increase of infarct volumes” in assay [1] (5 DAYS RIP, listed as ASA) and “minimally increased” in assay [1] (5 DAYS RIP, listed as ASS+PBS). Further, the “ST segment elevation compared to controls (in words)” value in assay [2] (5 DAYS RIP, after FPO) was “higher compared to the PBS control group, but there is no significance”. Also, the “arrhythmias / VPB-Score compared to controls (in words)” value in assay [3] (5 DAYS RIP, during FPO) is “higher compared to the controls”.

As for `O=[N+]([O-])O[C@H]1CO[C@H]2[C@@H]1OC[C@H]2O[N+](=O)[O-]` [ISDN, isosorbide dinitrate], the “infarct size compared to controls (in words)” value in assay [1] (rat, in vivo) is listed as “smaller compared to controls (treated with PBS or ISDN-Placebo), but there is no significance; also recorded: smaller; also recorded: reduced infarct volumes”. For the same compound, the “ST segment elevation compared to controls (in words)” value in assay [2] (rat, in vivo) was “lower ST segment elevation course; also recorded: decreased compared to the PBS group but there is no significance; also recorded: non-significantly decreased; also recorded: decreases in ST elevation”. Besides, the “arrhythmias / VPB-Score compared to controls (in words)” value in assay [3] (rat, in vivo) is given as “less arrhythmias”.

For `O=[N+]([O-])OCC(CO[N+](=O)[O-])O[N+](=O)[O-]` [NTG, nitroglycerin], in assay [1] (rat, in vivo), the “decrease of infarct volume compared to the control group” value is “more than 50%” and the “infarct size compared to controls (in words)” value is “significantly smaller infarct area; also recorded: decreases the size of an experimentally induced myocardial infarct”. For the same compound, the “ST segment elevation compared to controls (in words)” value in assay [2] (rat, in vivo) is reported as “lower ST segment elevation course; also recorded: significantly decreased; also recorded: significantly attenuated ST elevation”. Further, in assay [3] (rat, in vivo), the VPB-Score is 5.77 and 3.60; the “arrhythmias / VPB-Score compared to controls (in words)” value was “more often scaled into grade 0; also recorded: reduced arrhythmias; also recorded: decreased serious arrhythmias”; the “rats with class 0 arrhythmias” value came out at 57.1%; the “rats with class IIIa arrhythmias” value is given as 14.3%. Besides, the “rats with class IVb arrhythmias” value in assay [3] (rat, in vivo) is 85.7% and 42.9%.
